Test results published in paper PMC5397029, “Variations in the interaction of human defensins with Escherichia coli: Possible implications in bacterial killing” (PLoS ONE, 2017).
“Also recorded” adds a separate entry of the source. Where two headings read alike, the source gives them in different places. Peptide text beside a SMILES is read from it.

Legend:
[1] = tested on: E. coli; experiment: Zeta potential of E. coli in the presence of defensins; assay type: cell-based, Escherichia coli; settings: for E. coli surface charge neutralizing ability (change in zeta potential): 5 μM defensin, except HD5 2.5 μM and HBD3 0.5 μM, three independent experiments; for concentration found to neutralize the E. coli surface charge almost completely: zeta potential of E. coli
Protocol: Zeta potential of the E. coli in the presence of human defensins was measured as described previously. The concentration of peptide used was 5μM, except for HBD3 and HD5. […] Cells were treated with 5 μM defensin and zeta potential was measured, except in the cases of HD5 and HBD3. In the cases of HD5 and HBD3, zeta potential was measured after treating with 2.5 μM and 0.5 μM of peptides, respectively. Control represent zeta potential of E. coli in the absence of any peptide. Error bars represents standard deviations of three independent experiments.

[2] = tested on: E. coli MG1655; settings: cited from earlier work
Excerpt: Table 2 Minimum Bactericidal Concentration (MBC) of human defensins against E. coli MG1655. | column: Minimum bactericidal concentration in μM^a

[3] = tested on: E. coli inner membrane; experiment: Time-lapse fluorescence confocal microscopy (SYTOX green / FM4-64); assay type: cell-based, Escherichia coli; settings: for Intracellular accumulation of SYTOX green (E. coli inner membrane permeabilization): sub-lethal concentrations: HBD1 3 μM, HBD2 3 μM, HBD3 1 μM, HBD4 3 μM, HNP3 8 μM, HNP4 4 μM, HD5 2.5 μM, HD6 5 μM, 10^6 CFU/mL, 10 mM sodium phosphate buffer pH 7.4; for Intracellular accumulation of SYTOX green (E. coli inner membrane permeabilization) / time at which SYTOX green accumulation is evident: 5 nM SYTOX green; for time at which SYTOX green accumulation is evident: sub-lethal defensin concentrations, time-lapse confocal microscopy
Protocol: Effect of defensins on the E. coli inner membrane was examined using time-lapse confocal fluorescence microscopy. The assay was carried out as follows. Bacteria from the mid-log-phase was collected and resuspended (final density was adjusted to 10^6 CFU/mL) in 10 mM sodium phosphate buffer (pH 7.4). Cells were then treated with 3 μM FM4-64 for 20 minutes at room temperature to stain the inner membrane. FM4-64 is a lipophilic dye which stains the bacterial inner membrane. Excess dye was removed by centrifuging. The FM4-64 stained cells were then treated with sub-lethal concentrations of defensins in presence of 5 nM of SYTOX green. […] Cells were immediately transferred to chambered slides and images were recorded using 100X oil immersion objective on a Leica Ultraspectral microscope SP8 (Leica Microsystems). Argon 488 and HeNe 561 lasers were used to excite SYTOX green and FM4-64, respectively. Signals ranging from 510 to 560 nm and 600 to 740 nm were collected for SYTOX green and FM4-64, respectively. Images were processed using LAS-AFver3.1.3 (Leica Microsystems).

[4] = tested on: E. coli inner membrane; experiment: SYTOX green uptake assay using fluorescent spectroscopy; assay type: cell-based, Escherichia coli; settings: 2 × MBC of defensins, 200 nM SYTOX green, 5 × 10^6 CFU/mL, 10 mM phosphate buffer
Protocol: Effect of defensins on the E. coli inner membrane was assessed by measuring the extent of intracellular accumulation of SYTOX green. Cells from mid-log-phase were collected, washed and resuspended in 10 mM phosphate buffer. The final density was adjusted to 5 × 10^6 CFU/mL. […] Enhancement in SYTOX green fluorescence, a direct measure of the extent of membrane permeabilization was monitored in a Flurolog 3–22 fluorescence spectrophotometer (Jobin Yvon, USA). Excitation and emission wavelengths used were 503 nm and 523 nm, respectively.  Fig 4 Accumulation of SYTOX green in human defensins treated E. coli. […] The arrows indicate the point at which defensins were added.

[5] = Calcein release assay from lipid vesicles; settings: calcein entrapped POPC:POPG (1:1) LUVs, 25 μM, 10 mM sodium phosphate buffer pH 7.4, increasing defensin concentrations; 1% Triton X-100 = 100%
Protocol: Large unilamellar vesicles (LUVs) composed of POPC:POPG (1:1) containing 50 mM calcein were prepared by lipid extrusion method. Desired amounts of lipids from their respective chloroform stocks were taken into a glass tube and dried under a nitrogen stream to form a thin uniform lipid film. The film was further dried under vacuum for 5 to 6 hours to remove trace amounts of organic solvents. After this step, the lipid film was hydrated with 10 mM sodium phosphate buffer (pH 7.4) containing 50 mM calcein at 4°C for 12 to 15 hours. Hydrated lipid films were then vortexed and passed through polycarbonate membrane having a pore diameter of 100 nm using a mini-extruder (Avanti Polar Lipid Inc.). Free calcein was removed by passing through a Sephadex G50 column. Calcein entrapped vesicles (25 μM) were then treated with increasing concentrations of defensins and extent of calcein released was measured in a Fluorolog 3–22 fluorescence spectrophotometer (Jobin Yvon, USA). Excitation and emission wavelengths used were 485 and 515 nm, respectively. 1% Triton X-100 was used for complete release of calcein.  Fig 5 Effect of human defensins on POPC:POPG (1:1) vesicles. Calcein entrapped POPC: POPG vesicles (25 μM) were treated with increasing concentrations of human defensins and percentage of calcein released was calculated. Calcein released by 1% Triton X-100 was taken as 100%.

[6] = Transmission electron microscopy of defensin aggregates; assay type: physicochemical; settings: 20 μM defensin in 10 mM sodium phosphate buffer pH 7.4, uranyl acetate stain, TEM
Protocol: Defensins were diluted to a concentration of 20 μM in 10 mM sodium phosphate buffer (pH 7.4) from their respective stocks solutions (dissolved in Milli-Q water). From these solutions, 5 μL was deposited on a carbon-coated Formvar 200-mesh copper grid. The grid was left undisturbed for about 5 minutes; excess buffer was then removed using Whatman filter paper. Grids were stained with uranyl acetate (2% w/v) for 45 seconds. Excess stain was removed and grids were used for recording the images. Images were recorded using JAM-2100 LaB6 transmission electron microscope (JEOL, Tokyo, Japan) at 100 kV.

[7] = tested on: E. coli inner membrane; settings: ref Wang et al. [55]; cited from earlier work
Protocol: Recent findings indicate HD5 exerts its activity against the E. coli by localizing to bacterial cytoplasm and possibly interacting with DNA [39]. In a very recent study, Wang et al., have shown that HD5 permeabilizes the E. coli inner membrane. However, prolonged incubation (~40 minutes) was required t ...

[8] = ref Krishnakumari et al. 2013 [44]

GIINTLQKYYC^1RVRGGRC^2AVLSC^3LPKEEQIGKC^2STRGRKC^1C^3RRKK (bicyclic or more) [HBD3, human β-defensin, three disulfide bonds, purchased from Peptides International]
E. coli surface charge neutralizing ability (change in zeta potential) [1]: most efficient bacterial surface charge neutralizing ability | concentration found to neutralize the E. coli surface charge almost completely [1]: 0.5 µM | Minimum bactericidal concentration [2, 8]: 2 µM

CC[C@H](C)[C@@H]1NC(=O)[C@H](CCC(=O)O)NC(=O)[C@@H]2CSSC[C@@H]3NC(=O)[C@H](Cc4ccc(O)cc4)NC(=O)[C@@H](NC(=O)[C@@H](NC(=O)[C@H](C)N)[C@@H](C)O)CSSC[C@@H](C(=O)N[C@@H](CCCNC(=N)N)C(=O)O)NC(=O)[C@H](CSSC[C@H](NC(=O)[C@H](CCCNC(=N)N)NC(=O)CNC(=O)[C@H]([C@@H](C)O)NC(=O)[C@H](CCCNC(=N)N)NC3=O)C(=O)N[C@@H](C)C(=O)N[C@@H]([C@@H](C)O)C(=O)N[C@@H](CCCNC(=N)N)C(=O)N[C@@H](CCC(=O)O)C(=O)N[C@@H](CO)C(=O)N[C@@H](CC(C)C)C(=O)N[C@@H](CO)C(=O)NCC(=O)N[C@@H](C(C)C)C(=O)N2)NC(=O)[C@H](CC(C)C)NC(=O)[C@H](CCCNC(=N)N)NC(=O)[C@H](Cc2ccc(O)cc2)NC(=O)[C@H](CC(C)C)NC(=O)[C@H](CCCNC(=N)N)NC(=O)CNC(=O)[C@H](CO)NC1=O [HD5] (HELM PEPTIDE1{A.T.C.Y.C.R.T.G.R.C.A.T.R.E.S.L.S.G.V.C.E.I.S.G.R.L.Y.R.L.C.C.R}$PEPTIDE1,PEPTIDE1,3:R3-31:R3|PEPTIDE1,PEPTIDE1,5:R3-20:R3|PEPTIDE1,PEPTIDE1,10:R3-30:R3$$$V2.0; N-terminus and C-terminus assumed)
E. coli surface charge neutralizing ability (change in zeta potential) [1]: neutralizes the E. coli surface charge at much lower concentration than HNP4 | concentration found to neutralize the E. coli surface charge almost completely [1]: 2.5 µM | Intracellular accumulation of SYTOX green (E. coli inner membrane permeabilization) [3]: does not permeabilize the E. coli inner membrane; also recorded: faint localization of SYTOX green | time at which SYTOX green accumulation is evident [3]: 30 min | Damage to the E. coli inner membrane (SYTOX green accumulation, time-lapse microscopy and fluorescent spectroscopy) [4]: do not cause extensive damage to the E. coli inner membrane | Permeabilization of lipid vesicles (calcein release) [5]: do not permeabilize membranes | Morphology of self-assembled aggregates (electron micrographs) [6]: rod-like structures | incubation required to observe E. coli inner membrane perturbation [7]: ~ 40 minutes

AFTC^1HC^2RRSC^3YSTEYSYGTC^2TVMGINHRFC^3C^1L (bicyclic or more) [HD6]
E. coli surface charge neutralizing ability (change in zeta potential) [1]: neutralizes the E. coli surface charge more efficiently than HBD4 (+7), HBD1 (+ 4) and HNP3 (+2) | Damage to the E. coli inner membrane (SYTOX green accumulation, time-lapse microscopy and fluorescent spectroscopy) [4]: do not cause extensive damage to the E. coli inner membrane | Permeabilization of lipid vesicles (calcein release) [5]: do not permeabilize membranes | Morphology of self-assembled aggregates (electron micrographs) [6]: distinctive fibrillar morphology

ELDRIC^1GYGTARC^2RKKC^3RSQEYRIGRC^2PNTYAC^1C^3LRKWDESLLNRTKP (bicyclic or more) [HBD4, human β-defensin, three disulfide bonds, purchased from Peptides International]
Morphological features of FM4-64 stained E. coli inner membrane ([3]; 3 μM FM4-64, sub-lethal defensin concentration (HBD4 3 μM)): FM4-64 staining shows considerable diffusion into cytoplasm | Permeabilization of lipid vesicles (calcein release) [5]: does not permeabilize PC:PG vesicles | Minimum bactericidal concentration ([2]; ref Sharma and Nagaraj 2012 [45]): 5 µM

GIGDPVTC^1LKSGAIC^2HPVFC^3PRRYKQIGTC^2GLPGTKC^1C^3KKP (bicyclic or more) [HBD2, human β-defensin, three disulfide bonds, purchased from Peptides International]
Minimum bactericidal concentration [2, 8]: 8 µM

CC[C@H](C)[C@@H]1NC(=O)[C@H](CC(C)C)NC(=O)[C@@H]2CSSC[C@@H]3NC(=O)[C@H](CO)NC(=O)[C@@H](NC(=O)[C@@H](N)C(C)C)CSSC[C@@H](C(=O)N[C@H](C(=O)N[C@@H](CCCNC(=N)N)C(=O)N[C@H](C(=O)O)C(C)C)[C@@H](C)O)NC(=O)[C@H](CSSC[C@H](NC(=O)[C@H](Cc4ccccc4)NC(=O)[C@H](C(C)C)NC(=O)[C@H](CC(C)C)NC(=O)[C@H](CCCNC(=N)N)NC3=O)C(=O)N[C@@H](CCCNC(=N)N)C(=O)N[C@@H](CCCNC(=N)N)C(=O)N[C@@H]([C@@H](C)O)C(=O)N[C@@H](CCC(=O)O)C(=O)N[C@@H](CC(C)C)C(=O)N[C@@H](CCCNC(=N)N)C(=O)N[C@@H](C(C)C)C(=O)NCC(=O)N[C@@H](CC(N)=O)C(=O)N2)NC(=O)[C@H](Cc2ccc(O)cc2)NC(=O)[C@H]([C@@H](C)O)NC(=O)[C@H](Cc2ccccc2)NC(=O)[C@H](CO)NC(=O)[C@H](C(C)C)NC(=O)CNC(=O)CNC1=O [HNP4] (HELM PEPTIDE1{V.C.S.C.R.L.V.F.C.R.R.T.E.L.R.V.G.N.C.L.I.G.G.V.S.F.T.Y.C.C.T.R.V}$PEPTIDE1,PEPTIDE1,2:R3-30:R3|PEPTIDE1,PEPTIDE1,4:R3-19:R3|PEPTIDE1,PEPTIDE1,9:R3-29:R3$$$V2.0; N-terminus and C-terminus assumed)
Intracellular accumulation of SYTOX green (E. coli inner membrane permeabilization) [3]: cytoplasmic accumulation of SYTOX green is evident | time at which SYTOX green accumulation is evident [3]: 11 min

DHYNC^1VSSGGQC^2LYSAC^3PIFTKIQGTC^2YRGKAKC^1C^3K (bicyclic or more) [HBD1, human β-defensin, three disulfide bonds, purchased from Peptides International]
E. coli surface charge neutralizing ability (change in zeta potential) [1]: poor surface charge neutralizing ability | Intracellular accumulation of SYTOX green (E. coli inner membrane permeabilization) [3]: faint accumulation of SYTOX green | time at which SYTOX green accumulation is evident [3]: ~ 20 min | Damage to the E. coli inner membrane (SYTOX green accumulation, time-lapse microscopy and fluorescent spectroscopy) [4]: do not cause extensive damage to the E. coli inner membrane | Permeabilization of lipid vesicles (calcein release) [5]: do not permeabilize membranes | Minimum bactericidal concentration [2, 8]: 8 µM
